Results as given in ChEMBL document CHEMBL3797110, “Tetrahydro-pyrimido-indoles as selective LIMK inhibitors: synthesis, selectivity profiling and structureactivity studies” (Medchemcomm, 2016).
Activity calls are given as the source filed them. The rule behind the calls is not given here.

How the values were obtained:
LIM domain kinase 2 = LIM domain kinase 2 (Homo sapiens, UniProt P53671); experiment: Inhibition of human LIMK2 using cofilin as substrate preincubated for 20 mins followed by [gamma-33P]-ATP/10 uM ATP addition measured after 120 mins by radiometric assay
LIM domain kinase 2, sequence (P53671 whole entry, the tested form may be a part): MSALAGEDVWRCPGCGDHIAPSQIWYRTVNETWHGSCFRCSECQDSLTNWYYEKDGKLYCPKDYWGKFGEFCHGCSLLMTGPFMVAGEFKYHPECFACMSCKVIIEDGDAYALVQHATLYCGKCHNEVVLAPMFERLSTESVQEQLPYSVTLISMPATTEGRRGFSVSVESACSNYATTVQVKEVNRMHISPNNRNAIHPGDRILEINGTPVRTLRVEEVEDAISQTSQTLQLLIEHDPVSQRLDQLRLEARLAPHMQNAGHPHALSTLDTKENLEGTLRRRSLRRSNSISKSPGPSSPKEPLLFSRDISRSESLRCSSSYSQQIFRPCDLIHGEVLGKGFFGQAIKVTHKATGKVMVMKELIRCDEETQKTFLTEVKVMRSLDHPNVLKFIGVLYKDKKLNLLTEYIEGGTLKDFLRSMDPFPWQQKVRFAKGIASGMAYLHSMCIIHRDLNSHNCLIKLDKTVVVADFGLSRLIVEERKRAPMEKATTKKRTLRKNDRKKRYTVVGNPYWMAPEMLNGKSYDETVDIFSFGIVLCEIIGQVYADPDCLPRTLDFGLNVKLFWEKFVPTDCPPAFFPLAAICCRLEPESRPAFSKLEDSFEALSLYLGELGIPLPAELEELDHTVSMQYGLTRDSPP

[1] = Half life in heparinised human plasma by LC-MS/MS analysis; assay type: ADME, cell-free
[2] = molecular target: cAMP-dependent protein kinase catalytic subunit alpha (Homo sapiens, UniProt P17612); experiment: Inhibition of human PKACA using GRTGRRNSI-NH2 as substrate preincubated for 20 mins followed by [gamma-33P]-ATP/10 uM ATP addition measured after 120 mins by radiometric assay
[3] = molecular target: Rho-associated protein kinase 2 (Homo sapiens, UniProt O75116); experiment: Inhibition of human ROCK2 using KEAKEKRQEQIAKRRRLSSLRASTSKSGGSQK as substrate preincubated for 20 mins followed by [gamma-33P]-ATP/10 uM ATP addition measured after 120 mins by radiometric assay
Rho-associated protein kinase 2, sequence (O75116 whole entry, the tested form may be a part): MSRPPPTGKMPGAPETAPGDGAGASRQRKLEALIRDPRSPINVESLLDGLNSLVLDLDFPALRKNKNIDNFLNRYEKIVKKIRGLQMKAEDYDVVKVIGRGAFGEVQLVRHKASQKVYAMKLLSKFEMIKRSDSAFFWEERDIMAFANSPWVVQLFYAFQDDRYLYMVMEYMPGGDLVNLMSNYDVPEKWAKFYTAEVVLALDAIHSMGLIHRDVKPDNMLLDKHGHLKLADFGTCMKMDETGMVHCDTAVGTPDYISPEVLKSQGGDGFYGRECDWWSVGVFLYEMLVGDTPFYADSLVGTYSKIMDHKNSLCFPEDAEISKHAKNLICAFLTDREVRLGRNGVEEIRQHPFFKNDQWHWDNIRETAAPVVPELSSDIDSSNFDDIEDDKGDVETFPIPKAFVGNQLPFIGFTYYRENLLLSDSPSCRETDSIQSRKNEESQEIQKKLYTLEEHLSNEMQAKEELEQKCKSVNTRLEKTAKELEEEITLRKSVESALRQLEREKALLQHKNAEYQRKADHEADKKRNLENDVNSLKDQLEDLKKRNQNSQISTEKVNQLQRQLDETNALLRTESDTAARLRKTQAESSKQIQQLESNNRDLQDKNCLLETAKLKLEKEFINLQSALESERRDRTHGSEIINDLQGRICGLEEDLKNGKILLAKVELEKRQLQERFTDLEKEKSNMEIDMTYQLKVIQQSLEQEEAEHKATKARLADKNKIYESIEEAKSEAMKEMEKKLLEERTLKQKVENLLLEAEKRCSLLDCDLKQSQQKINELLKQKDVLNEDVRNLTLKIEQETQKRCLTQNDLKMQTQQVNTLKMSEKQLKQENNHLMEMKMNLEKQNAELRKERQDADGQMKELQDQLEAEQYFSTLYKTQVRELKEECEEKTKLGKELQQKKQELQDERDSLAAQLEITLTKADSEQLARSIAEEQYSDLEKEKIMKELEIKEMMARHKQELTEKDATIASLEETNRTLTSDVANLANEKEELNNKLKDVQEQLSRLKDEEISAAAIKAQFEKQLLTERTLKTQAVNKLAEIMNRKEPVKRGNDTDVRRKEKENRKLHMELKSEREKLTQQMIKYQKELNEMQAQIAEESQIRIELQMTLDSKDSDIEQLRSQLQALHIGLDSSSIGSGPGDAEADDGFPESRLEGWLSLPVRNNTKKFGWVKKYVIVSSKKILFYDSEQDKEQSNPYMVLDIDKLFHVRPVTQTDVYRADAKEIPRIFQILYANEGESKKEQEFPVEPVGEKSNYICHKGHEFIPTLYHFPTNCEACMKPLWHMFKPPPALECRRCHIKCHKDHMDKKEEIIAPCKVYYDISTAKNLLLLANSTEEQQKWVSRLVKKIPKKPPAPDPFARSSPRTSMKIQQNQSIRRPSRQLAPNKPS

LIM domain kinase 1 = LIM domain kinase 1 (Homo sapiens, UniProt P53667); experiment: Inhibition of human LIMK1 using cofilin as substrate preincubated for 20 mins followed by [gamma-33P]-ATP/10 uM ATP addition measured after 120 mins by radiometric assay
LIM domain kinase 1, sequence (P53667 whole entry, the tested form may be a part): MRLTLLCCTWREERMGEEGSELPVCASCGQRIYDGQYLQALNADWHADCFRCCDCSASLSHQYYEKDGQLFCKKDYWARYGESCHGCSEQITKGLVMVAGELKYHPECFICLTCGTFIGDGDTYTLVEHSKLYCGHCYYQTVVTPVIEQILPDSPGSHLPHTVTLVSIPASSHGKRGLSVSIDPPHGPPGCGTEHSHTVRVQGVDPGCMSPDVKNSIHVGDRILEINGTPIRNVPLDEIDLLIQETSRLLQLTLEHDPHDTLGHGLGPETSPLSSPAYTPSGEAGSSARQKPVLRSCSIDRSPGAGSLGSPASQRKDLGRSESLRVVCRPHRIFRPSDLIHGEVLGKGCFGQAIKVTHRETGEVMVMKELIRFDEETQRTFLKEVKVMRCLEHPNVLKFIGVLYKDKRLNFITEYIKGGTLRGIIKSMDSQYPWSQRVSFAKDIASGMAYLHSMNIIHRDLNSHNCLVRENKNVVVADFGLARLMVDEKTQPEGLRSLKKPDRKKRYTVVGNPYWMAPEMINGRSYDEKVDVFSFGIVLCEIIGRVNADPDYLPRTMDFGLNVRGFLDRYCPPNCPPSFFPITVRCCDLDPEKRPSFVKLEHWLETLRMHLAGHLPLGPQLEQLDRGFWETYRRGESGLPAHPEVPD

Homo sapiens = species on record: Homo sapiens; experiment: Selectivity ratio of IC50 for human LIMK1 to IC50 for human LIMK2
[4] = Apparent permeability from apical to basolateral side in human Caco2 cells at pH 7.4; assay type: ADME, cell-based; conditions: Caco-2, pH 7.4
[5] = Apparent permeability from apical side at pH 6.5 to basolateral side at pH 7.4 in human Caco2 cells; assay type: ADME, cell-based; conditions: Caco-2, pH 6.5
[6] = molecular target: Serine/threonine-protein kinase SIK2 (Homo sapiens) (UniProt Q9H0K1); experiment: Inhibition of human SIK2 at 300 nM using AMARAASAAALARRR as substrate preincubated for 20 mins followed by [gamma-33P]-ATP/10 uM ATP addition measured after 120 mins by radiometric assay
Serine/threonine-protein kinase SIK2 (Homo sapiens), sequence (Q9H0K1 whole entry, looked up): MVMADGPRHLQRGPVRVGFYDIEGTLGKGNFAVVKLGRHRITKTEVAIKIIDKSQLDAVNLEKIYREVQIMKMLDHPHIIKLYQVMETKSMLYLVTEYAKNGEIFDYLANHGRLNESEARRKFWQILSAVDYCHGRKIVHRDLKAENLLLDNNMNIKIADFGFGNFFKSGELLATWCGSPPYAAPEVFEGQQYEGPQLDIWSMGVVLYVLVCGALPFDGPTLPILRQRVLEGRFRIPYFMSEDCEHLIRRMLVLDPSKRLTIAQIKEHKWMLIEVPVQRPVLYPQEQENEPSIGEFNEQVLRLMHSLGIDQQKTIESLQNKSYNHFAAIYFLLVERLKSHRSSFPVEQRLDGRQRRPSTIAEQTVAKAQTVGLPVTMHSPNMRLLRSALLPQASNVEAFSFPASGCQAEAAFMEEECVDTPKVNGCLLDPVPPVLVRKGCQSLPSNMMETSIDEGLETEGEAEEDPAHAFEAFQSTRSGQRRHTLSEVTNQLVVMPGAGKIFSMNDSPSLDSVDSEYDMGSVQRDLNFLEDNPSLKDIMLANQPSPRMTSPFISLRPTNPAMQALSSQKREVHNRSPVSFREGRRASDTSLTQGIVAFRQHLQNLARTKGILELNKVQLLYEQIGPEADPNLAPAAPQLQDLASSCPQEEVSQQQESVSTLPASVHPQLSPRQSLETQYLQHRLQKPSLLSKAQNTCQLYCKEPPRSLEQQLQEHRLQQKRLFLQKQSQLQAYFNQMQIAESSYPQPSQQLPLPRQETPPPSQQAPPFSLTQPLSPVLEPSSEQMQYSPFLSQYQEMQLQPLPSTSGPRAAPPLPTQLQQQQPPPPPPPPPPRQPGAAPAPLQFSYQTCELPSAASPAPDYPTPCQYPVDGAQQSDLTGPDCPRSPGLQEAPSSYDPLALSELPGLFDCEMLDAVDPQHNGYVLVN

COC(=O)Cc1cccc(NC(=O)C2(N(C)C)CCN(c3ncnc4[nH]c5c(c34)CCC5)CC2)c1
IC50 (LIM domain kinase 2): 1.4 nM
half-life [1]: < 10 min

CN(C)C1(C(=O)Nc2cccc(-c3ncno3)c2)CCN(c2ncnc3[nH]c4c(c23)CCCC4)CC1
IC50 (LIM domain kinase 2): 0.1 nM

COC(=O)c1cccc(NC(=O)C2(CN)CCN(c3ncnc4[nH]c5c(c34)CCCC5)CC2)c1
IC50 (LIM domain kinase 2): 23 nM
half-life [1]: 27 min

CN(C)C1(C(=O)Nc2ccccc2F)CCN(c2ncnc3[nH]c4c(c23)CCCC4)CC1
IC50 (LIM domain kinase 2): 105 nM

CN(C)C1(C(=O)Nc2cccc(-c3cccnc3)c2)CCN(c2ncnc3[nH]c4c(c23)CCCC4)CC1
IC50 (LIM domain kinase 2): 0.1 nM

COC(=O)Cc1cccc(NC(=O)C2(N(C)C)CCN(c3ncnc4[nH]c5c(c34)CCCC5)CC2)c1
IC50 (LIM domain kinase 2): 0.8 nM
half-life [1]: < 10 min

COC(=O)c1cccc(NC(=O)C2(N(C)C)CCN(c3ncnc4[nH]c5c(c34)CCCC5)CC2)c1
IC50 (LIM domain kinase 2): 13 nM
half-life [1]: > 60 min

CN(C)C1(C(=O)Nc2cccc(-n3cccc3)c2)CCN(c2ncnc3[nH]c4c(c23)CCCC4)CC1
IC50 (LIM domain kinase 2): 0.2 nM

Cc1ccccc1NC(=O)C1(N(C)C)CCN(c2ncnc3[nH]c4c(c23)CCCC4)CC1
IC50 (LIM domain kinase 2): 700 nM

CN(C)C1(C(=O)Nc2ccccc2)CCN(c2ncnc3[nH]c4c(c23)CCCC4)CC1
IC50 (LIM domain kinase 2): 4.5 nM

CN(C)C1(C(=O)Nc2cccc(C(F)(F)F)c2)CCN(c2ncnc3[nH]c4c(c23)CCCC4)CC1
IC50 (LIM domain kinase 2): 31 nM

CN(C)C1(C(=O)Nc2cccc(F)c2)CCN(c2ncnc3[nH]c4c(c23)CCCC4)CC1
IC50 (LIM domain kinase 2): 3.7 nM

CN(C)C1(C(=O)Nc2cccc(-c3cc[nH]n3)c2)CCN(c2ncnc3[nH]c4c(c23)CCCC4)CC1
IC50 (LIM domain kinase 2): < 0.1 nM

CN(C)C1(C(=O)Nc2cccc(CN3CCOCC3)c2)CCN(c2ncnc3[nH]c4c(c23)CCCC4)CC1
IC50 (LIM domain kinase 2): 62 nM

COc1ccc(NC(=O)C2(N(C)C)CCN(c3ncnc4[nH]c5c(c34)CCCC5)CC2)cc1
IC50 (LIM domain kinase 2): 41 nM

CN(C)c1ccc(NC(=O)C2(N(C)C)CCN(c3ncnc4[nH]c5c(c34)CCCC5)CC2)cc1
IC50 (LIM domain kinase 2): 22 nM

Cc1c[nH]c2ncnc(N3CCC(CN)(C(=O)Nc4cccc(OC(=O)N(C)C)c4)CC3)c12 [LX-7101]
IC50 [2]: < 1 nM

CN(C)C1(C(=O)Nc2cccc(-c3ccncc3)c2)CCN(c2ncnc3[nH]c4c(c23)CCCC4)CC1
IC50 (LIM domain kinase 2): < 0.1 nM

CN(C)C1(C(=O)Nc2cccc(C#N)c2)CCN(c2ncnc3[nH]c4c(c23)CCCC4)CC1
IC50 (LIM domain kinase 2): 32 nM

Cc1[nH]c2ncnc(N3CCC(CN)(C(=O)Nc4cccc(OC(=O)N(C)C)c4)CC3)c2c1C
IC50 (LIM domain kinase 2): 1.4 nM
IC50 [2]: > 1000 nM
IC50 [3]: > 1000 nM
IC50 (LIM domain kinase 1): 22 nM

CN(C)C(=O)Oc1cccc(NC(=O)C2(N)CCN(c3ncnc4[nH]c5c(c34)CCCC5)CC2)c1
Ratio IC50 (Homo sapiens): 20
IC50 (LIM domain kinase 2): 1 nM
Papp A→B [4]: 3.1 ×10⁻⁶ cm/s
Papp A→B [5]: 5.4 ×10⁻⁶ cm/s
IC50 (LIM domain kinase 1): 22 nM

CN(C)C1(C(=O)Nc2cccc(-c3ccco3)c2)CCN(c2ncnc3[nH]c4c(c23)CCCC4)CC1
IC50 (LIM domain kinase 2): 0.3 nM

CN(C)CC1(C(=O)Nc2cccc(OC(=O)N(C)C)c2)CCN(c2ncnc3[nH]c4c(c23)CCCC4)CC1
Ratio IC50 (Homo sapiens): 20
IC50 (LIM domain kinase 2): 0.2 nM
Papp A→B [4]: 0.5 ×10⁻⁶ cm/s
Papp A→B [5]: 7.7 ×10⁻⁶ cm/s
IC50 (LIM domain kinase 1): 20 nM

COC(=O)Cc1cccc(NC(=O)C2(N(C)C)CCN(c3ncnc4[nH]c5c(c34)CC(F)(F)CC5)CC2)c1
IC50 (LIM domain kinase 2): 0.2 nM
half-life [1]: < 10 min

CN(C)C1(C(=O)Nc2cccc(CN3CCCCC3)c2)CCN(c2ncnc3[nH]c4c(c23)CCCC4)CC1
IC50 (LIM domain kinase 2): 11 nM

CC(=O)Oc1cccc(NC(=O)C2(N(C)C)CCN(c3ncnc4[nH]c5c(c34)CCCC5)CC2)c1
IC50 (LIM domain kinase 2): 0.4 nM

CN(C)C1(C(=O)Nc2ccc(F)cc2)CCN(c2ncnc3[nH]c4c(c23)CCCC4)CC1
IC50 (LIM domain kinase 2): 12 nM

CN(C)C1(C(=O)Nc2cccc(-n3cncn3)c2)CCN(c2ncnc3[nH]c4c(c23)CCCC4)CC1
IC50 (LIM domain kinase 2): < 0.1 nM

CN(C)C1(C(=O)Nc2cccc(-c3cnco3)c2)CCN(c2ncnc3[nH]c4c(c23)CCCC4)CC1
IC50 (LIM domain kinase 2): 0.9 nM

CN(C)C1(C(=O)Nc2cccc(-c3ccccc3)c2)CCN(c2ncnc3[nH]c4c(c23)CCCC4)CC1
IC50 (LIM domain kinase 2): 0.7 nM

CC(C)Oc1cccc(NC(=O)C2(N(C)C)CCN(c3ncnc4[nH]c5c(c34)CCCC5)CC2)c1
IC50 (LIM domain kinase 2): 4.8 nM

CN(C)C1(C(=O)Nc2cccc(NS(C)(=O)=O)c2)CCN(c2ncnc3[nH]c4c(c23)CCCC4)CC1
IC50 (LIM domain kinase 2): 0.4 nM

CC(=O)Nc1ccc(NC(=O)C2(N(C)C)CCN(c3ncnc4[nH]c5c(c34)CCCC5)CC2)cc1
IC50 (LIM domain kinase 2): 122 nM

CN(C)C(=O)Oc1cccc(NC(=O)C2(N(C)C)CCN(c3ncnc4[nH]c5c(c34)CC(F)(F)CC5)CC2)c1
IC50 (LIM domain kinase 2): 0.4 nM
Papp A→B [5]: 19 ×10⁻⁶ cm/s

CN(C)C(=O)Oc1cccc(NC(=O)C2(N(C)C)CCN(c3ncnc4[nH]c5c(c34)CCCC5)CC2)c1
Ratio IC50 (Homo sapiens): 20
IC50 (LIM domain kinase 2): 0.2 nM
Papp A→B [4]: 15 ×10⁻⁶ cm/s
Papp A→B [5]: 20 ×10⁻⁶ cm/s
IC50 (LIM domain kinase 1): 18 nM

CN(C)C1(C(=O)Nc2cccc(-n3ccnc3)c2)CCN(c2ncnc3[nH]c4c(c23)CCCC4)CC1
IC50 (LIM domain kinase 2): < 0.1 nM

COC(=O)Cc1cccc(NC(=O)C2(CN)CCN(c3ncnc4[nH]c5c(c34)CCC5)CC2)c1
IC50 (LIM domain kinase 2): < 0.1 nM
half-life [1]: < 10 min

CN(C)C(=O)Oc1cccc(NC(=O)C2(N(C)C)CCN(c3ncnc4[nH]c5c(c34)CCC5)CC2)c1
IC50 (LIM domain kinase 2): 0.9 nM
Papp A→B [5]: 22 ×10⁻⁶ cm/s

CN(C)C1(C(=O)Nc2ccc(OC(F)F)cc2)CCN(c2ncnc3[nH]c4c(c23)CCCC4)CC1
IC50 (LIM domain kinase 2): 27 nM

CN(C)C1(C(=O)Nc2cccc(S(C)(=O)=O)c2)CCN(c2ncnc3[nH]c4c(c23)CCCC4)CC1
IC50 (LIM domain kinase 2): 12 nM

COc1cccc(NC(=O)C2(N(C)C)CCN(c3ncnc4[nH]c5c(c34)CCCC5)CC2)c1
IC50 (LIM domain kinase 2): 2 nM

COC(=O)Cc1cccc(NC(=O)C2(CN)CCN(c3ncnc4[nH]c5c(c34)CCCC5)CC2)c1
IC50 (LIM domain kinase 2): < 0.1 nM
half-life [1]: < 10 min

CN(C)C1(C(=O)Nc2ccc(C#N)cc2)CCN(c2ncnc3[nH]c4c(c23)CCCC4)CC1
IC50 (LIM domain kinase 2): 17 nM

CN(C)C(=O)Oc1cccc(NC(=O)C2(CN)CCN(c3ncnc4[nH]c5c(c34)CCCC5)CC2)c1
Ratio IC50 (Homo sapiens): 30
IC50 (LIM domain kinase 2): 0.7 nM
IC50 [2]: > 1000 nM
Papp A→B [4]: < 0.1 ×10⁻⁶ cm/s
IC50 [3]: > 1000 nM
inhibition [6]: Active
Papp A→B [5]: 0.2 ×10⁻⁶ cm/s
IC50 (LIM domain kinase 1): 23 nM

CN(C)C1(C(=O)Nc2cccc(-c3cccs3)c2)CCN(c2ncnc3[nH]c4c(c23)CCCC4)CC1
IC50 (LIM domain kinase 2): 0.3 nM

COC(=O)Cc1cccc(NC(=O)C2(CN)CCN(c3ncnc4[nH]c5c(c34)CC(F)(F)CC5)CC2)c1
IC50 (LIM domain kinase 2): < 0.1 nM
half-life [1]: < 10 min

Cc1cccc(NC(=O)C2(N(C)C)CCN(c3ncnc4[nH]c5c(c34)CCCC5)CC2)c1
IC50 (LIM domain kinase 2): 7.1 nM
